Measured values from patent EP4745137A1 (Gluetacs Therapeutics (Shanghai) Co., Ltd., priority 2023, dated 2025).

Assays:
[1] = target: T1, WEE1 (Homo sapiens, UniProt P30291+Q96SW2); assay: Western-blot assay of substrate protein degradation in hPBMCs, WEE1; type: cell-based; conditions: 24 hours of compound treatment, compounds tested at 50 nM and 500 nM (concentration of the table not stated)
T1 construct: endogenous in cells; host or cells: hPBMCs (Milecell Biotechnologies)

[2] = target: T2, IKZF1 (Homo sapiens, UniProt Q13422+Q96SW2); assay: Western-blot assay of substrate protein degradation in hPBMCs, IKZF1; type: cell-based; conditions: 24 hours of compound treatment, compounds tested at 50 nM and 500 nM (concentration of the table not stated)
T2 construct: endogenous in cells; host or cells: hPBMCs (Milecell Biotechnologies)
T2 sequence (Q13422 whole entry): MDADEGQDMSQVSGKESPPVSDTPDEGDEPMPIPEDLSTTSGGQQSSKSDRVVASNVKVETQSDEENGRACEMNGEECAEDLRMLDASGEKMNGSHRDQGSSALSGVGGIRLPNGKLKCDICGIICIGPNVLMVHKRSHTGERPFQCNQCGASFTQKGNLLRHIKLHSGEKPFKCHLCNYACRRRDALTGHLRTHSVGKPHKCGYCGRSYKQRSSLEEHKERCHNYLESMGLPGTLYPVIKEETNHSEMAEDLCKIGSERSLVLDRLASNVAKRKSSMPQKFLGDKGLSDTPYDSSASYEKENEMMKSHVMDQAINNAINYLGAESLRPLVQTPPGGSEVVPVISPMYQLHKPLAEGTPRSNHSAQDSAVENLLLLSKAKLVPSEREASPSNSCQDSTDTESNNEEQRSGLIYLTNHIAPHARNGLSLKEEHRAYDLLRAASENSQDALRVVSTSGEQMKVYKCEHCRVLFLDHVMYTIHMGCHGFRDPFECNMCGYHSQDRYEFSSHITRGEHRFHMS
T2 sequence (Q96SW2 whole entry): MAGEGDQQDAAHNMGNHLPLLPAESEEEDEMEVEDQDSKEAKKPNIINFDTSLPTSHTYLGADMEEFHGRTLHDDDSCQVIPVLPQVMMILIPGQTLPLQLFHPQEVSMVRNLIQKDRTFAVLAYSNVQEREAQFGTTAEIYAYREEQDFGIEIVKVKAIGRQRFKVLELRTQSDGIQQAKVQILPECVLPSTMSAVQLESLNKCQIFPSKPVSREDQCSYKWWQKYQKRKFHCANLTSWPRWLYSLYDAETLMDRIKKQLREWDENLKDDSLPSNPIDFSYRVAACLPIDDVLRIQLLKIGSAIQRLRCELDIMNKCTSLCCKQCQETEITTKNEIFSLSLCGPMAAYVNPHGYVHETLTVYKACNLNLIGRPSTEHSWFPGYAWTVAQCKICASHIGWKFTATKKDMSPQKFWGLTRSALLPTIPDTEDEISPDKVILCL
T2 sequence (Q16531 whole entry partner): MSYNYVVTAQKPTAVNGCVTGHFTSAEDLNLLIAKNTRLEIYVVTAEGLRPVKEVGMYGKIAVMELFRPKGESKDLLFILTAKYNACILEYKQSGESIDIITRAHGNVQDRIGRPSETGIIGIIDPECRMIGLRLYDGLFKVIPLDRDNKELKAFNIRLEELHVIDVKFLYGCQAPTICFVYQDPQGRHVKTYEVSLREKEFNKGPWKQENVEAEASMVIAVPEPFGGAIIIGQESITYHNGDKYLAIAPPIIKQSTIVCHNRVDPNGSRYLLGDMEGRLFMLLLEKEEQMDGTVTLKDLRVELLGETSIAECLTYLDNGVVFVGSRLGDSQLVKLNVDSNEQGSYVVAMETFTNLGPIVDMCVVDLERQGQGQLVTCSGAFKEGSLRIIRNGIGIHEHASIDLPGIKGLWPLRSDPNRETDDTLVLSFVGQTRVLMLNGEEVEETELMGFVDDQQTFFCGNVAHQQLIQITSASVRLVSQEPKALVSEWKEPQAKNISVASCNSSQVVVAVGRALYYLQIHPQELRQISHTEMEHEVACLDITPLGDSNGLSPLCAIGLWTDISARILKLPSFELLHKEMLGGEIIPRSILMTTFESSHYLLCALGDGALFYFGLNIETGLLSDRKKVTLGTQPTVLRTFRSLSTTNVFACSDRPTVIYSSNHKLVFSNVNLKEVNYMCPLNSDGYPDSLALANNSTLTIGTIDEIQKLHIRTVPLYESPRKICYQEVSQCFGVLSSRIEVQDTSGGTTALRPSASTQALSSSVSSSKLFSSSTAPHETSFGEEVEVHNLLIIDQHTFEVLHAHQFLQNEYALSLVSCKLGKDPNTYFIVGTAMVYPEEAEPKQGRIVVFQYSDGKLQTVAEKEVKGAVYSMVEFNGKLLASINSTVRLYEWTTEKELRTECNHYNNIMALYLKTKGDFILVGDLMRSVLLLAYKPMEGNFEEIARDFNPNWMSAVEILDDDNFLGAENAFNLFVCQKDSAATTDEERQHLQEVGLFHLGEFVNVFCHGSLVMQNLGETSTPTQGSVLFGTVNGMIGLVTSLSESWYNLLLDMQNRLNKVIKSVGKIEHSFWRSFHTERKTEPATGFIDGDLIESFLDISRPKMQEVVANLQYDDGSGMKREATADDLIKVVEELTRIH

[3] = target: T3, IKZF2 (Homo sapiens, UniProt Q96SW2+Q9UKS7); assay: Western-blot assay of substrate protein degradation in hPBMCs, IKZF2; type: cell-based; conditions: 24 hours of compound treatment, compounds tested at 50 nM and 500 nM (concentration of the table not stated)
T3 construct: endogenous in cells; host or cells: hPBMCs (Milecell Biotechnologies)
T3 sequence (Q9UKS7 whole entry): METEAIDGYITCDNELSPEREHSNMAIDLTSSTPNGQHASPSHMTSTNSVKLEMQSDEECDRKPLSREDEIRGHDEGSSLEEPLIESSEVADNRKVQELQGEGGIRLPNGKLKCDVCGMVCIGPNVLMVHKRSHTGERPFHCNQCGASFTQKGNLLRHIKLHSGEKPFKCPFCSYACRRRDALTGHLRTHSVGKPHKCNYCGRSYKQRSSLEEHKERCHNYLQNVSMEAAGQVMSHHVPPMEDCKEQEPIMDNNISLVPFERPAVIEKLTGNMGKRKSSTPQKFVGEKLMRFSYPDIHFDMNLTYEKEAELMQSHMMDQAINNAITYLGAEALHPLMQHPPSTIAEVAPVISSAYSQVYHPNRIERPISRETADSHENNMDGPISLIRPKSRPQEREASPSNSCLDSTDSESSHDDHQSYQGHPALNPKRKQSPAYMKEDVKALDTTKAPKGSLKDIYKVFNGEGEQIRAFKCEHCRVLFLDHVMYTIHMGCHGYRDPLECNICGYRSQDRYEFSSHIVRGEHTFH
T3 sequence (Q96SW2 whole entry): as the sequence (Q96SW2 whole entry) above
T3 sequence (Q16531 whole entry partner): as the sequence (Q16531 whole entry partner) above

[4] = target: T4, IKZF3 (Homo sapiens, UniProt Q96SW2+Q9UKT9); assay: Western-blot assay of substrate protein degradation in hPBMCs, IKZF3; type: cell-based; conditions: 24 hours of compound treatment, compounds tested at 50 nM and 500 nM (concentration of the table not stated)
T4 construct: endogenous in cells; host or cells: hPBMCs (Milecell Biotechnologies)
T4 sequence (Q9UKT9 whole entry): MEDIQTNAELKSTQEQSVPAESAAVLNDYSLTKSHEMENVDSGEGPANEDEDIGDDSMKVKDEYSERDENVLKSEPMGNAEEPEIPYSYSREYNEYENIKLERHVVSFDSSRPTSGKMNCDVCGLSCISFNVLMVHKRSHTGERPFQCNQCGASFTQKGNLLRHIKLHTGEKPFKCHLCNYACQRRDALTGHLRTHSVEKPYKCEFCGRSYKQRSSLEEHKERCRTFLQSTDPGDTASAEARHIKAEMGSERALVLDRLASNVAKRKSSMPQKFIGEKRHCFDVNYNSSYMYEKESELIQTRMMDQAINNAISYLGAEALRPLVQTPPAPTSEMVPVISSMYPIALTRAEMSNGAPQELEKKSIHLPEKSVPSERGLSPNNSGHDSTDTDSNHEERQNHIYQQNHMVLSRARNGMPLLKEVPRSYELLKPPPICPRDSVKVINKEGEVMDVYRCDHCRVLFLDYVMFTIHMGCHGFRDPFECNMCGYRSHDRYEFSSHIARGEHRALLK
T4 sequence (Q96SW2 whole entry): as the sequence (Q96SW2 whole entry) above
T4 sequence (Q16531 whole entry partner): as the sequence (Q16531 whole entry partner) above

[5] = target: T5, CK1α (Homo sapiens, UniProt P48729+Q96SW2); assay: Western-blot assay of substrate protein degradation in hPBMCs, CK1α; type: cell-based; conditions: 24 hours of compound treatment, compounds tested at 50 nM and 500 nM (concentration of the table not stated)
T5 construct: endogenous in cells; host or cells: hPBMCs (Milecell Biotechnologies)

[6] = target: T6, GSPT1 (Homo sapiens, UniProt P15170+Q96SW2); assay: Western-blot assay of substrate protein degradation in hPBMCs, GSPT1; type: cell-based; conditions: 24 hours of compound treatment, compounds tested at 50 nM and 500 nM (concentration of the table not stated)
T6 construct: endogenous in cells; host or cells: hPBMCs (Milecell Biotechnologies)
T6 sequence (P15170 whole entry): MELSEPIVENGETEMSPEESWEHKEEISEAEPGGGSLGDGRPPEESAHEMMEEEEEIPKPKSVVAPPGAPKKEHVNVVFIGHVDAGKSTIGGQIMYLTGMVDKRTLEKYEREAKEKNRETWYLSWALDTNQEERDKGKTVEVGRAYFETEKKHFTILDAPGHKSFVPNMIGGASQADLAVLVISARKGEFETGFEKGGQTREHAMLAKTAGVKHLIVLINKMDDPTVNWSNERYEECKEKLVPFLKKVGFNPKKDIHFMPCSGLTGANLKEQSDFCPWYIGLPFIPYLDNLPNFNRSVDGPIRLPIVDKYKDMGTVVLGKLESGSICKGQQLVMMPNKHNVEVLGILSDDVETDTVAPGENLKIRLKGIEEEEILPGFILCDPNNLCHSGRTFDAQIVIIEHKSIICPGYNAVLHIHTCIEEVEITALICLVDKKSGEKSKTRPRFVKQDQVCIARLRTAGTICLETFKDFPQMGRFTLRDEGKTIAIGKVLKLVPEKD
T6 sequence (Q96SW2 whole entry): as the sequence (Q96SW2 whole entry) above
T6 sequence (Q16531 whole entry partner): as the sequence (Q16531 whole entry partner) above

[7] = target: T7, human Cereblon WT GST-tagged protein (Homo sapiens, UniProt Q96SW2); assay: CRBN-binding affinity by HTRF (CEREBLON BINDING kit); conditions: HTRF inhibitory activity, CEREBLON BINDING kit; read-out: HTRF IC50
T7 construct: purchased CISBIO 64BDCRBNPEH
T7 sequence (Q96SW2 whole entry): as the sequence (Q96SW2 whole entry) above

[8] = system: Vcap; assay: Tumor cell proliferation inhibition (CellTiter-Meiluncell Luminescent Cell Viability Assay), Vcap; conditions: Homo sapiens, 96 h, read-out: inhibitory activity (IC50, nM) against tumor cells proliferation, Vcap
Method: (§1) The tumor cells used herein were cultured in a cell culture medium listed in table 2 at 37°C in an incubator with 5% CO2. Prior to experimentation, all cell lines used were correctly identified by STR profiling, and tested negative for mycoplasma contamination using a mycoplasma detection kit through routine screenings.
(§2) On the following day, the test compounds of the present disclosure were subjected to serial dilution. […] Subsequently, 0.5 µL of the test compound dilution was transferred into the 96-well plate containing the cells, with each well containing 100 µL of cell culture medium. […] Into the 96-well plate, the diluted test compounds and corresponding detection reagents were added, resulting in final test compound concentrations of 500 nM and 10 nM, respectively. The experimental procedure is described below using the diluted 2 µM test compound as an example.
(§3) After the cells were treated with the compounds of the present disclosure for a specified period (the treatment durations were shown in Table 3), the cell viability assay reagent was added to the culture medium according to the kit's instructions to determine cell viability. […] All controls were treated using the same procedure as the compounds of the present disclosure. The growth inhibition curves for the compounds of the present disclosure were plotted using Prism GraphPad software, and the IC50 values were calculated therefrom.

[9] = system: SW620; assay: Tumor cell proliferation inhibition (CellTiter-Meiluncell Luminescent Cell Viability Assay), SW620; conditions: Homo sapiens, SW-620, 96 h, read-out: inhibitory activity (IC50, nM) against tumor cells proliferation, SW620
Method: as §1, §2, §3

[10] = system: Jurkat; assay: Tumor cell proliferation inhibition (CellTiter-Meiluncell Luminescent Cell Viability Assay), Jurkat; conditions: Homo sapiens, 96 h, read-out: inhibitory activity (IC50, nM) against tumor cells proliferation, Jurkat
[11] = system: CAL-62; assay: Tumor cell proliferation inhibition (CellTiter-Meiluncell Luminescent Cell Viability Assay), CAL-62; conditions: Homo sapiens, CAL-62, 96 h, read-out: inhibitory activity (IC50, nM) against tumor cells proliferation, CAL-62
[12] = system: CCRF-CEM; assay: Tumor cell proliferation inhibition (CellTiter-Meiluncell Luminescent Cell Viability Assay), CCRF-CEM; conditions: Homo sapiens, 96 h, read-out: inhibitory activity (IC50, nM) against tumor cells proliferation, CCRF-CEM
[13] = system: MM.1R; assay: Tumor cell proliferation inhibition (CellTiter-Meiluncell Luminescent Cell Viability Assay), MM.1R; conditions: Homo sapiens, 96 h, read-out: inhibitory activity (IC50, nM) against tumor cells proliferation, MM.1R
Method: as §1, §2, §3

[14] = system: Human acute T lymphocytic leukemia cells (Molt-4); assay: Tumor cell proliferation inhibition (CellTiter-Meiluncell Luminescent Cell Viability Assay), Molt-4; conditions: MOLT-4, 96 h, read-out: inhibitory activity (IC50, nM) against tumor cells proliferation, Molt 4
[15] = system: MGC803; assay: Tumor cell proliferation inhibition (CellTiter-Meiluncell Luminescent Cell Viability Assay), MGC803; conditions: Homo sapiens, MGC-803, 96 h, read-out: inhibitory activity (IC50, nM) against tumor cells proliferation, MGC803
Method: as §1
On the following day, the test compounds of the present disclosure were subjected to serial dilution. […] Subsequently, 0.5 µL of the test compound dilution was transferred into the 96-well plate containing the cells, with each well containing 100 µL of cell culture medium. […] Into the 96-well plate, the diluted test compounds and corresponding detection reagents were added, resulting in final test compound concentrations of 500 nM and 10 nM, respectively.
as §3

[16] = system: NCI-H1975; assay: Tumor cell proliferation inhibition (CellTiter-Meiluncell Luminescent Cell Viability Assay), NCI-H1975; conditions: Homo sapiens, NCI-H1975, 96 h, read-out: inhibitory activity (IC50, nM) against tumor cells proliferation, H1975
[17] = system: Human breast cancer cells (MDA-MB-231); assay: Tumor cell proliferation inhibition (CellTiter-Meiluncell Luminescent Cell Viability Assay), MDA-MB-231; conditions: MDA-MB-231, 96 h, read-out: inhibitory activity (IC50, nM) against tumor cells proliferation, MDA-MB-231

T1 sequence (P30291 whole entry): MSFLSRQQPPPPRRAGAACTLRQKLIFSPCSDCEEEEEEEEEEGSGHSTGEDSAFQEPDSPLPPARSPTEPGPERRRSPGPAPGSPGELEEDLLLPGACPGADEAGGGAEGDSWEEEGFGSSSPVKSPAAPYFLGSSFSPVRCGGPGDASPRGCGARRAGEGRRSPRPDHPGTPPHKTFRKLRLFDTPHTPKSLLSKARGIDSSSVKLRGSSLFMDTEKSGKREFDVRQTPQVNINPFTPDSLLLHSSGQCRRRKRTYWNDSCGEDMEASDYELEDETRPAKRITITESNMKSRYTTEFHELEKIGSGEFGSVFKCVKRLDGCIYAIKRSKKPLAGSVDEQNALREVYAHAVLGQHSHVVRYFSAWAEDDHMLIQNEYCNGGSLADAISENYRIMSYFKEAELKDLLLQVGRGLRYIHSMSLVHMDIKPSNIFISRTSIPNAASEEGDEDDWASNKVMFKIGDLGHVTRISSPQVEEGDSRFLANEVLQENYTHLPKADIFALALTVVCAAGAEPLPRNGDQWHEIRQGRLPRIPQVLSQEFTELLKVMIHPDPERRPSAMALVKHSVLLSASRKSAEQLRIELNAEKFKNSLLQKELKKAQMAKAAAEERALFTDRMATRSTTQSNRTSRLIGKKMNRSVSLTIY
T1 sequence (Q96SW2 whole entry): as the sequence (Q96SW2 whole entry) above
T1 sequence (Q16531 whole entry partner): as the sequence (Q16531 whole entry partner) above

IC50 [7] [nM] | IC50 [8] [nM] | IC50 [9] [nM] | IC50 [10] [nM] | IC50 [11] [nM] | IC50 [12] [nM] | IC50 [13] [nM] | IC50 [14] [nM] | IC50 [15] [nM] | IC50 [16] [nM] | IC50 [17] [nM] | SMILES | Weel substrate protein remaining % [1] | IKZF 1 substrate protein remaining % [2] | IKZF2 substrate protein remaining % [3] | IKZF3 substrate protein remaining % [4] | CK1a substrate protein remaining % [5] | GSPT1 substrate protein remaining % [6]
500 to 1000 | 500 to 1000 | 100 to 500 | 100 to 500 | 50 to 100 | 10 to 50 | – | – | – | – | – | O=C1CCC(N2Cc3cc(CN4CCN(c5nsc6ccccc56)CC4)ccc3C2=O)C(=O)N1 (stereo not drawn) [GT-04255, 3-(5-((4-(benzo[d]isothiazol-3-yl)piperazin-1-yl)methyl)-1-oxoisoindolin-2-yl)piperidine-2,6-dione] | A (0% ≤ substrate protein remaining % ≤ 80%) | A (0% ≤ substrate protein remaining % ≤ 80%) | A (0% ≤ substrate protein remaining % ≤ 80%) | A (0% ≤ substrate protein remaining % ≤ 80%) | A (0% ≤ substrate protein remaining % ≤ 80%) | A (0% ≤ substrate protein remaining % ≤ 80%)
500 to 1000 | 10 to 50 | 100 to 500 | 1 to 5 | 10 to 50 | 5 to 10 | 5 to 10 | 5 to 10 | 100 to 500 | 100 to 500 | 500 to 1000 | O=C1CCC(N2Cc3cc(CN4CCN(c5cccc(C(F)(F)F)n5)CC4)ccc3C2=O)C(=O)N1 (stereo not drawn) [GT-04432, 3-(1-oxo-5-((4-(6-(trifluoromethyl)pyridin-2-yl)piperazin-1-yl)methyl)isoindolin-2-yl)piperidine-2,6-dione] | A (0% ≤ substrate protein remaining % ≤ 80%) | A (0% ≤ substrate protein remaining % ≤ 80%) | A (0% ≤ substrate protein remaining % ≤ 80%) | A (0% ≤ substrate protein remaining % ≤ 80%) | B (80%< substrate protein remaining %≤ 100%) | A (0% ≤ substrate protein remaining % ≤ 80%)
500 to 1000 | 50 to 100 | 100 to 500 | 10 to 50 | 10 to 50 | 10 to 50 | 10 to 50 | 10 to 50 | – | 500 to 1000 | – | O=C1CCC(N2Cc3cc(CN4CCN(c5ccc(F)cc5F)CC4)ccc3C2=O)C(=O)N1 (stereo not drawn) [GT-04438, 3-(5-((4-(2,4-difluorophenyl)piperazin-1-yl)methyl)-1-oxoisoindolin-2-yl)piperidine-2,6-dione] | A (0% ≤ substrate protein remaining % ≤ 80%) | A (0% ≤ substrate protein remaining % ≤ 80%) | A (0% ≤ substrate protein remaining % ≤ 80%) | A (0% ≤ substrate protein remaining % ≤ 80%) | A (0% ≤ substrate protein remaining % ≤ 80%) | A (0% ≤ substrate protein remaining % ≤ 80%)
1000 to 1500 | 50 to 100 | 100 to 500 | 10 to 50 | 10 to 50 | 10 to 50 | 10 to 50 | 10 to 50 | 100 to 500 | 500 to 1000 | – | O=C1CCC(N2Cc3cc(CN4CCC(c5ccccc5)CC4)ccc3C2=O)C(=O)N1 (stereo not drawn) [GT-04465, 3-(1-oxo-5-((4-phenylpiperidin-1-yl)methyl)isoindolin-2-yl)piperidine-2,6-dione] | A (0% ≤ substrate protein remaining % ≤ 80%) | A (0% ≤ substrate protein remaining % ≤ 80%) | A (0% ≤ substrate protein remaining % ≤ 80%) | A (0% ≤ substrate protein remaining % ≤ 80%) | A (0% ≤ substrate protein remaining % ≤ 80%) | A (0% ≤ substrate protein remaining % ≤ 80%)
500 to 1000 | 50 to 100 | 500 to 1000 | 10 to 50 | 10 to 50 | 5 to 10 | 10 to 50 | 10 to 50 | 500 to 1000 | – | – | O=C1CCC(N2Cc3cc(CN4CCC(c5ccc(Cl)cc5)CC4)ccc3C2=O)C(=O)N1 (stereo not drawn) [GT-04469, 3-(5-((4-(4-chlorophenyl)piperidin-1-yl)methyl)-1-oxoisoindolin-2-yl)piperidine-2,6-dione] | A (0% ≤ substrate protein remaining % ≤ 80%) | A (0% ≤ substrate protein remaining % ≤ 80%) | A (0% ≤ substrate protein remaining % ≤ 80%) | A (0% ≤ substrate protein remaining % ≤ 80%) | A (0% ≤ substrate protein remaining % ≤ 80%) | A (0% ≤ substrate protein remaining % ≤ 80%)
500 to 1000 | 100 to 500 | 500 to 1000 | 10 to 50 | 50 to 100 | 10 to 50 | 50 to 100 | 10 to 50 | – | – | – | O=C1CCC(N2Cc3cc(CN4CCN(c5cccc(F)n5)CC4)ccc3C2=O)C(=O)N1 (stereo not drawn) [GT-04498, 3-(5-((4-(6-fluoropyridin-2-yl)piperazin-1-yl)methyl)-1-oxoisoindolin-2-yl)piperidine-2,6-dione] | A (0% ≤ substrate protein remaining % ≤ 80%) | A (0% ≤ substrate protein remaining % ≤ 80%) | A (0% ≤ substrate protein remaining % ≤ 80%) | A (0% ≤ substrate protein remaining % ≤ 80%) | A (0% ≤ substrate protein remaining % ≤ 80%) | A (0% ≤ substrate protein remaining % ≤ 80%)
500 to 1000 | 50 to 100 | 100 to 500 | 10 to 50 | 10 to 50 | 10 to 50 | 10 to 50 | 10 to 50 | – | – | – | Cc1ccsc1C1CCN(Cc2ccc3c(c2)CN(C2CCC(=O)NC2=O)C3=O)CC1 (stereo not drawn) [GT-04502, 3-(5-((4-(3-methylthiophen-2-yl)piperidin-1-yl)methyl)-1-oxoisoindolin-2-yl)piperidine-2,6-dione] | A (0% ≤ substrate protein remaining % ≤ 80%) | A (0% ≤ substrate protein remaining % ≤ 80%) | A (0% ≤ substrate protein remaining % ≤ 80%) | A (0% ≤ substrate protein remaining % ≤ 80%) | A (0% ≤ substrate protein remaining % ≤ 80%) | A (0% ≤ substrate protein remaining % ≤ 80%)
500 to 1000 | 50 to 100 | 100 to 500 | 10 to 50 | 10 to 50 | 10 to 50 | 10 to 50 | 10 to 50 | – | – | – | Cc1cscc1C1CCN(Cc2ccc3c(c2)CN(C2CCC(=O)NC2=O)C3=O)CC1 (stereo not drawn) [GT-04504, 3-(5-((4-(4-methylthiophen-3-yl)piperidin-1-yl)methyl)-1-oxoisoindolin-2-yl)piperidine-2,6-dione] | A (0% ≤ substrate protein remaining % ≤ 80%) | A (0% ≤ substrate protein remaining % ≤ 80%) | A (0% ≤ substrate protein remaining % ≤ 80%) | A (0% ≤ substrate protein remaining % ≤ 80%) | B (80%< substrate protein remaining %≤ 100%) | A (0% ≤ substrate protein remaining % ≤ 80%)
